Test results as given in paper PMC9551036, “A selective and orally bioavailable VHL-recruiting PROTAC achieves SMARCA2 degradation in vivo” (Nature Communications, 2022).
“And” between values parts separate entries of the source, which are not always exact repeats. Equal entries are not always repeated. Where two headings read alike, the source gives them in different places.

Tests used:
NCI-H1568 cells = test: Cell viability assay (CellTiter Glo) in NCI-H1568; format: cell-based, human; conditions: for EC50: read-out: EC50 cell proliferation (CellTiter Glo); for IC50: NCI-H1568, (18h), CellTiter Glo, individual replicates, read-out: NCI-H1568 (18h) CTG
Procedure: 500–2000 cells were seeded in white, clear bottom 96-well plates (Corning or Perkin Elmer) in 180–200 µl medium per well. The next day, compounds were added using a digital dispenser and a T0 sample was measured for reference. […], and viability (luminescence) was measured using CellTiter Glo or CellTiter Glo 2.0 (Promega) according to manufacturer’s instructions after equilibrating cells and reagents at room temperature and 10–20 min incubation time while shaking.

SMARCA4 [1] = target: T1, SMARCA4 (Homo sapiens, UniProt P51532); test: Imaging-based SMARCA4 protein assay in RKO cells; format: cell-based; set-up: endogenous in cells; host or cells: RKO, HCT116, LU99, HCC-364, HCT-15, HCC4006, SK-N-AS; conditions: individual replicates
T1 sequence (P51532 whole entry): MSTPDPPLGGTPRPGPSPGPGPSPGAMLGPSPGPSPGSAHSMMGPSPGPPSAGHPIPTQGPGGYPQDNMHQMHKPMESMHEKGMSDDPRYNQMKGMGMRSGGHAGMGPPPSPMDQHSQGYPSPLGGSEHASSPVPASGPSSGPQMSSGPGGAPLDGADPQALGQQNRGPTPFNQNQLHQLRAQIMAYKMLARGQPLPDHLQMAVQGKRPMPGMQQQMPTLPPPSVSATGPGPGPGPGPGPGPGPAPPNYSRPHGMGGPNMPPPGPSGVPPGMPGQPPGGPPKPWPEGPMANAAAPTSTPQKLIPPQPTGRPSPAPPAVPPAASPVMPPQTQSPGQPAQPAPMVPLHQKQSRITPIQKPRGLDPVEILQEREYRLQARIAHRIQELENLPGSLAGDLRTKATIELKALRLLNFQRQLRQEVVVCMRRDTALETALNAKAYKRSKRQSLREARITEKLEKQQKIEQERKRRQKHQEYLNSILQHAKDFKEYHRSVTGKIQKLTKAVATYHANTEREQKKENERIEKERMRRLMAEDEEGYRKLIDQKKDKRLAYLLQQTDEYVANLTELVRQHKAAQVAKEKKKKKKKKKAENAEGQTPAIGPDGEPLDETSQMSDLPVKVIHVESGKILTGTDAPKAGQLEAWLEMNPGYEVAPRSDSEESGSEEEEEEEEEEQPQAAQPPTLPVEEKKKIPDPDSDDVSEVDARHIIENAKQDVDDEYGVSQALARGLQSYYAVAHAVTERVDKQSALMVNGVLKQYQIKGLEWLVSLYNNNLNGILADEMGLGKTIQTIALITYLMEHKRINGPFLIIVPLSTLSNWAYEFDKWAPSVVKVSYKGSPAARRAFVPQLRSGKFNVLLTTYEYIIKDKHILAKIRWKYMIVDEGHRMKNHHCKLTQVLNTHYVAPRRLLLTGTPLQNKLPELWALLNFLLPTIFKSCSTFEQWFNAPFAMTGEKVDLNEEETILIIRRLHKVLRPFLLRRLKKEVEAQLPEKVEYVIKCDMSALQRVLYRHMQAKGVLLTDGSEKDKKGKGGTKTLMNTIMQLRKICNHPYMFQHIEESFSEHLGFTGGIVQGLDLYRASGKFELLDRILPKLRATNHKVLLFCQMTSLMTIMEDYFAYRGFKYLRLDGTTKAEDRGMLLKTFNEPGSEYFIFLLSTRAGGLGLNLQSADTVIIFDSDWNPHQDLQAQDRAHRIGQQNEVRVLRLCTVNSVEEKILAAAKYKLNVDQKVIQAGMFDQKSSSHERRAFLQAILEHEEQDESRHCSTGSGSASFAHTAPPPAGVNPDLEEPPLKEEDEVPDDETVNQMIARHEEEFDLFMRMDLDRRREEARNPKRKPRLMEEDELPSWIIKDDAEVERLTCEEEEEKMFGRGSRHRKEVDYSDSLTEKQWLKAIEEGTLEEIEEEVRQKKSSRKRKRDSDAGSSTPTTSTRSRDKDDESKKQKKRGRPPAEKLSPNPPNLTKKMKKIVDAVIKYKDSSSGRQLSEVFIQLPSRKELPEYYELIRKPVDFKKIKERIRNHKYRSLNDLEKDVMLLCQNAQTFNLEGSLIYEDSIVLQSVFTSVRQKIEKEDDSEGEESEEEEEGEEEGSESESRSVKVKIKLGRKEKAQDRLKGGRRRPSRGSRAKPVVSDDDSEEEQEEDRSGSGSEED
Procedure: 1250 cells per well in 60 µl medium were plated in flat bottom, poly-lysin coated 384-well plates (CellCarrier Ultra, Perkin Elmer). The next day, test compounds (10 µl of serial dilutions) and DMSO controls were diluted in DMEM medium such that the final DMSO content was <1% or were added using an ultrasound dispensing system. 4 wells were reserved for a background measurement. […] After aspirating the fixing solution, the cells were washed once with 25 µl PBS. 25 µl of blocking buffer (10% goat serum in PBS) was added and cells were incubated for 30 min, then washed once with PBS. Cells were stained with 20 µl of SMARCA2/4 primary antibody solution (Sigma #HPA029981 RRID:AB_10602406 1:1000 or Cell Signalling #52251 clone E9O6 RRID:AB_2799410 1:1000 in PBS with 10% FCS) for 2–4 h at room temperature. Cells were again washed once with PBS. […] The cell layer was then washed once with 25 µl PBS, the wells were filled with 25 µl PBS and the plates were sealed with an adhesive sheet. They were then imaged on the Opera Phoenix (mean intensity in the nucleus). Results were computed as percent of controls ((value of test compound − background)/(value of the negative control DMSO—background) multiplied by 100). EC50 values were computed using a 4-parametric logistic model.

PBRM1BD5 = target: T2, PBRM1BD5 (Homo sapiens, UniProt Q86U86); test: TR-FRET ternary complex affinity and cooperativity, PBRM1; format: binding
T2 construct: GST (TEV site) (N); His6 (TEV site) (N, cleaved yes); made in house; host or cells: PBRM1^BD5: Escherichia coli BL21(DE3)
T2 sequence (Q86U86 645-766): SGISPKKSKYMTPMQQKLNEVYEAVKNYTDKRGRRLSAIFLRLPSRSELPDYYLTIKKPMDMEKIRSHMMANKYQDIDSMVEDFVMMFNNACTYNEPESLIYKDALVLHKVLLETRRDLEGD

SMARCA4 [2] = target: T1, SMARCA4; test: SMARCA4 capillary electrophoresis protein assay in RKO cells; format: cell-based; set-up: endogenous in cells; host or cells: RKO, HCT116, LU99, HCC-364, HCT-15, HCC4006, SK-N-AS; conditions: mean ± SD; for Dmax: RKO
Procedure: 130,000–200,000 cells were seeded in 24-well plates and incubated until settled down or overnight. Compounds were dissolved in DMSO and added to cells in indicated concentrations using a digital dispenser following an optional media change. Cells were incubated for 4 or 18 h as indicated. For SMARCA2/4 half-life determination, 150,000 or 200,000 cells were seeded in 24-well plates. The next day, 50 µg/ml cycloheximide (Sigma) was added and cells were incubated for 1–24 h. For SMARCA2/4 re-synthesis measurements, 200,000 cells were seeded in 24-well plates. The next day, 100 nM compound 6 was added for 4 h to degrade SMARCA2/4, and a sample was taken as baseline for normalisation. To allow re-synthesis, a VHL binder (compound 32, 25 or 50 µM) was then added for 3 or 24 h. Medium was removed, cells were washed with PBS and lysed with 80 µl Lysis Buffer (MSD Tris Lysis Buffer (#R60TX-2) + Halt Inhibitor Cocktail (100x) + Benzonase 0.5 µL/ml). Samples were frozen at −80 °C and thawed at room temperature before use. Samples were transferred to a V-bottom plate and insoluble debris was pelleted by centrifugation for 5 min at maximum speed. The supernatant was transferred to a fresh plate. Master Mix and Ladder were prepared according to manufacturer’s instructions for 12–230 kDa Wes Separation Module, 8 × 25 capillary cartridges, Protein Simple #SM-W004 with Anti-Rabbit Detection Module for Wes, Peggy Sue or Sally Sue, Protein Simple #DM-001. 4.8 µl lysate were mixed with 1.2 µl Master Mix to achieve a protein concentration of ~0.5 µg/µl. Antibodies were diluted in Antibody Diluent II (SMARCA2 Sigma #HPA029981 RRID:AB_10602406 1:25–100, SMARCA4 Cell Signalling #49360 clone D1Q7F RRID:AB_2728743 1:15–120 or Abcam #ab110641 clone EPNCIR111A RRID:AB_10861578 1:60, GAPDH Abcam #ab9485 RRID:AB_307275 1:250). Wes plates were prepared and run according to manufacturer’s instructions. Proteins were quantified with accompanying Compass Software. SMARCA2/4 protein levels were normalised to GAPDH. […] Where applicable, curves were fitted using a 4-parametric logistic model.

[3] = 4h, read-out: RKO (4h) SMARCA4 DC50
[4] = 18h, read-out: RKO (18h) SMARCA4 DC50
[5] = TR-FRET competition for PBRM1BD5, without VCB, mean ± SD, read-out: TR-FRET PBRM1BD EC50

| SMILES | EC50 (NCI-H1568 cells; NCI-H1568 ([…]), mean ± SD) | IC50 (NCI-H1568 cells) | DC50 (SMARCA4 [1]; [3]) | DC50 (SMARCA4 [1]; [4]) | EC50 (PBRM1BD5; [5]) | DC50 (SMARCA4 [2]; RKO (4 h)) | DC50 (SMARCA4 [2]; RKO (18 h)) | SMARCA4 Dmax (SMARCA4 [2]; RKO (18 h)) | SMARCA4 Dmax (SMARCA4 [2]; RKO (4 h)) | EC50 (NCI-H1568 cells; Homo sapiens, NCI-H1568, […]) | Dmax (SMARCA4 [2]; RKO (18 h)) | EC50 (PBRM1BD5) |
| --- | --- | --- | --- | --- | --- | --- | --- | --- | --- | --- | --- | --- |
| CN1CCN(c2nc(=O)c3c(Cl)cccc3o2)CC1 [compound 13] | > 10000 nM | > 10000 nM | > 25000 nM | > 25000 nM | > 10000 nM | > 25000 nM | > 25000 nM | – | – | – | – | – |
| Cc1ncsc1-c1ccc(CNC(=O)[C@@H]2C[C@@H](O)CN2C(=O)[C@@H](NC(=O)C2(F)CC2)C(C)(C)C)c(OCCCCN2CCC(c3ccc4c(c3)n(C3CCCC3)c3nc(=O)c5c(Br)cccc5n43)CC2)c1 [compound 23] | 104 ± 27 nM | 133 nM and 78.5 nM and 108 nM | – | – | 39 ± 5 nM | > 25000 nM | 1260 nM | 76 ± 30% | – | – | – | – |
| Cc1ncsc1-c1ccc(CNC(=O)[C@@H]2C[C@@H](O)CN2C(=O)[C@@H](NC(=O)C2(F)CC2)C(C)(C)C)c(OCCOCCOCCN2CCC(c3ccc4c(c3)n(C3CCCC3)c3nc(=O)c5c(Br)cccc5n43)CC2)c1 [compound 21] | 223 ± 30 nM | 257 nM and 199 nM and 216 nM | 22.9 nM and 45.5 nM and 8.98 nM | 42.3 nM and 189 nM and 70.5 nM | 76 ± 4 nM | 21 ± 19 nM | 83 ± 78 nM | 75 ± 3% | 61 ± 16% | – | – | – |
| CN1CCC(c2ccc3c(c2)n(C2CCCC2)c2nc(=O)c4c(Br)cccc4n32)CC1 [compound 3] | – | – | > 25000 nM | 6980 nM and 15500 nM and 13600 nM | 31 ± 12 nM | > 25000 nM | 11400 nM | – | – | 1260 nM | 82 ± 32% | – |
| Cc1ncsc1-c1ccc([C@H](CCC(C)(C)CCN2CCC(c3ccc4c(c3)n(C3CCCC3)c3nc(=O)c5c(Br)cccc5n43)CC2)NC(=O)[C@@H]2C[C@@H](O)CN2C(=O)[C@@H](NC(=O)C2(F)CC2)C(C)(C)C)cc1 [compound 30] | 12 ± 6 nM | 19.7 nM and 17.5 nM and 8.43 nM and 7.53 nM | > 25000 nM | – | 131 ± 49 nM | > 25000 nM | 73 ± 35 nM | 72 ± 7% | – | – | – | – |
| Cc1ncsc1-c1ccc([C@H](CC[C@H](C)CCN2CCC(c3ccc4c(c3)n(C3CCCC3)c3nc(=O)c5c(Br)cccc5n43)CC2)NC(=O)[C@@H]2C[C@H](O)CN2C(=O)[C@@H](NC(=O)C2(F)CC2)C(C)(C)C)cc1 [compound 12] | – | 411 nM and 372 nM and 85.9 nM | > 25000 nM | 4950 nM and 4740 nM and 8100 nM and 6070 nM | – | > 25000 nM | 5830 nM | – | – | 236 ± 175 nM | 94 ± 7% | 75 ± 6 nM |
| Cc1ncsc1-c1ccc([C@H](COCCCN2CCC(c3ccc4c(c3)n(C3CCCC3)c3nc(=O)c5c(Br)cccc5n43)CC2)NC(=O)[C@@H]2C[C@@H](O)CN2C(=O)[C@@H](NC(=O)C2(F)CC2)C(C)(C)C)cc1 [compound 27] | 13 ± 1 nM | 14.2 nM and 12 nM and 13.3 nM | – | 22.8 nM and 30.9 nM and 34.7 nM | 33 ± 7 nM | 42 ± 3 nM | 29 ± 6 nM | 83 ± 7% | 55 ± 2% | – | – | – |
| Cc1ncsc1-c1ccc(CNC(=O)[C@@H]2C[C@H](O)CN2C(=O)[C@@H](NC(=O)C2(F)CC2)C(C)(C)C)c(OCCN2CCC(c3ccc4c(c3)n(C3CCCC3)c3nc(=O)c5c(Br)cccc5n43)CC2)c1 [compound 19] | 564 ± 384 nM | 595 nM and 1050 nM and 287 nM | > 25000 nM | > 25000 nM | 38 ± 2 nM | > 25000 nM | > 25000 nM | – | – | – | – | – |
